Here are results for five molecules from ChEMBL document CHEMBL1131977, “Synthesis and in vitro activity of new oxazolidinone antibacterial agents having substituted isoxazoles” (1999).

≈ marks a conversion by molar mass, not a printed value.

One test relates to Enterococcus faecium. In words: In vitro antibacterial activity against Enterococcus faecium C6301 (E.f.2). It is filed as functional.
In general, MIC refers to the lowest concentration that inhibits growth of the organism. `COc1cccc(-c2cc(CN3CCN(c4ccc(N5C[C@H](CNC(C)=O)OC5=O)cc4F)CC3)on2)c1`: the MIC stood at 4 µg/mL (≈ 7.64 µM).
Same read-out and setting: in the case of `CC(=O)NC[C@H]1CN(c2ccc(N3CCN(C(=O)c4cc(C(=O)N(C)C)no4)CC3)c(F)c2)C(=O)O1` it was 4 µg/mL (≈ 7.96 µM); in that of `CC(=O)NC[C@H]1CN(c2ccc(N3CCN(Cc4cc(C)no4)CC3)c(F)c2)C(=O)O1`, 16 µg/mL (≈ 37.1 µM); in that of `CC(=O)NC[C@H]1CN(c2ccc(N3CCN(C(=O)c4cc(Br)no4)CC3)c(F)c2)C(=O)O1`, 4 µg/mL (≈ 7.84 µM).
Still for that read-out and setting: in the case of `CC(=O)NC[C@H]1CN(c2ccc(N3CCN(Cc4cc(-c5cccs5)no4)CC3)c(F)c2)C(=O)O1` it was 2 µg/mL (≈ 4 µM).

The subject of a further test is Enterococcus faecium. In words: In vitro antibacterial activity against vancomycin-resistant Enterococcus faecium C6487 (VRE). It is filed as functional.
The molecule `COc1cccc(-c2cc(CN3CCN(c4ccc(N5C[C@H](CNC(C)=O)OC5=O)cc4F)CC3)on2)c1` returned an MIC of 1 µg/mL (≈ 1.91 µM).
The same measure, in the same setting: in the case of `CC(=O)NC[C@H]1CN(c2ccc(N3CCN(C(=O)c4cc(C(=O)N(C)C)no4)CC3)c(F)c2)C(=O)O1` it was 4 µg/mL (≈ 7.96 µM); in that of `CC(=O)NC[C@H]1CN(c2ccc(N3CCN(Cc4cc(C)no4)CC3)c(F)c2)C(=O)O1`, 16 µg/mL (≈ 37.1 µM).
Still for that read-out and setting: in the case of `CC(=O)NC[C@H]1CN(c2ccc(N3CCN(C(=O)c4cc(Br)no4)CC3)c(F)c2)C(=O)O1` it was 2 µg/mL (≈ 3.92 µM); in that of `CC(=O)NC[C@H]1CN(c2ccc(N3CCN(Cc4cc(-c5cccs5)no4)CC3)c(F)c2)C(=O)O1`, 22 µg/mL (≈ 44 µM).

The test system of another test is Enterococcus faecalis. The test is described as follows: In vitro antibacterial activity against Enterococcus faecalis C6291 (E.f.1). It is filed as functional.
Molecule `COc1cccc(-c2cc(CN3CCN(c4ccc(N5C[C@H](CNC(C)=O)OC5=O)cc4F)CC3)on2)c1` registered a minimal inhibitory concentration (MIC) of 8 µg/mL (≈ 15.3 µM).
The same measure, in the same setting: with `CC(=O)NC[C@H]1CN(c2ccc(N3CCN(C(=O)c4cc(C(=O)N(C)C)no4)CC3)c(F)c2)C(=O)O1` the figure was 4 µg/mL (≈ 7.96 µM); with `CC(=O)NC[C@H]1CN(c2ccc(N3CCN(Cc4cc(C)no4)CC3)c(F)c2)C(=O)O1`, 16 µg/mL (≈ 37.1 µM).
`CC(=O)NC[C@H]1CN(c2ccc(N3CCN(C(=O)c4cc(Br)no4)CC3)c(F)c2)C(=O)O1` had an MIC of 2 µg/mL (≈ 3.92 µM).
Still for that read-out and setting: with `CC(=O)NC[C@H]1CN(c2ccc(N3CCN(Cc4cc(-c5cccs5)no4)CC3)c(F)c2)C(=O)O1` the figure was 2 µg/mL (≈ 4 µM).

A further test relates to Staphylococcus epidermidis. The test is described as follows: In vitro antibacterial activity against Staphylococcus epidermis (S.e.1) […]. It is filed as functional.
Consider `COc1cccc(-c2cc(CN3CCN(c4ccc(N5C[C@H](CNC(C)=O)OC5=O)cc4F)CC3)on2)c1`, for which it took 4 µg/mL (≈ 7.64 µM) to inhibit growth (MIC).
The same measure, in the same setting: with `CC(=O)NC[C@H]1CN(c2ccc(N3CCN(C(=O)c4cc(C(=O)N(C)C)no4)CC3)c(F)c2)C(=O)O1` the figure was 2 µg/mL (≈ 3.98 µM); with `CC(=O)NC[C@H]1CN(c2ccc(N3CCN(Cc4cc(C)no4)CC3)c(F)c2)C(=O)O1`, 16 µg/mL (≈ 37.1 µM); with `CC(=O)NC[C@H]1CN(c2ccc(N3CCN(C(=O)c4cc(Br)no4)CC3)c(F)c2)C(=O)O1`, 1 µg/mL (≈ 1.96 µM).
`CC(=O)NC[C@H]1CN(c2ccc(N3CCN(Cc4cc(-c5cccs5)no4)CC3)c(F)c2)C(=O)O1` showed a minimal inhibitory concentration (MIC) of 4 µg/mL (≈ 8.01 µM).

A further test relates to Staphylococcus epidermidis. The test is described as follows: In vitro antibacterial activity against Staphylococcus epidermis (S.e.2) C2235. It is filed as functional.
Regarding `COc1cccc(-c2cc(CN3CCN(c4ccc(N5C[C@H](CNC(C)=O)OC5=O)cc4F)CC3)on2)c1`, the MIC amounted to 4 µg/mL (≈ 7.64 µM).
Still for that read-out and setting: in the case of `CC(=O)NC[C@H]1CN(c2ccc(N3CCN(C(=O)c4cc(C(=O)N(C)C)no4)CC3)c(F)c2)C(=O)O1` it was 2 µg/mL (≈ 3.98 µM); in that of `CC(=O)NC[C@H]1CN(c2ccc(N3CCN(Cc4cc(C)no4)CC3)c(F)c2)C(=O)O1`, 16 µg/mL (≈ 37.1 µM).
Same read-out and setting: with `CC(=O)NC[C@H]1CN(c2ccc(N3CCN(C(=O)c4cc(Br)no4)CC3)c(F)c2)C(=O)O1` the figure was 2 µg/mL (≈ 3.92 µM); with `CC(=O)NC[C@H]1CN(c2ccc(N3CCN(Cc4cc(-c5cccs5)no4)CC3)c(F)c2)C(=O)O1`, 1 µg/mL (≈ 2 µM).

In the next test the test system is Staphylococcus aureus. The test is described as follows: In vitro antibacterial activity against ciprofloxacin-resistant Staphylococcus aureus (CRSA) C6043. The test is classed as functional.
Turning to `COc1cccc(-c2cc(CN3CCN(c4ccc(N5C[C@H](CNC(C)=O)OC5=O)cc4F)CC3)on2)c1`, the MIC was determined as 2 µg/mL (≈ 3.82 µM).
The molecule `CC(=O)NC[C@H]1CN(c2ccc(N3CCN(C(=O)c4cc(C(=O)N(C)C)no4)CC3)c(F)c2)C(=O)O1` gave a minimum inhibitory concentration (MIC) of 8 µg/mL (≈ 15.9 µM).
On the same count and under the same terms, in the case of `CC(=O)NC[C@H]1CN(c2ccc(N3CCN(Cc4cc(C)no4)CC3)c(F)c2)C(=O)O1` it was 16 µg/mL (≈ 37.1 µM).
The molecule `CC(=O)NC[C@H]1CN(c2ccc(N3CCN(C(=O)c4cc(Br)no4)CC3)c(F)c2)C(=O)O1` registered a minimum inhibitory concentration (MIC) of 2 µg/mL (≈ 3.92 µM).
The same measure, in the same setting: in the case of `CC(=O)NC[C@H]1CN(c2ccc(N3CCN(Cc4cc(-c5cccs5)no4)CC3)c(F)c2)C(=O)O1` it was 2 µg/mL (≈ 4 µM).

Another test deals with Staphylococcus aureus. In words: In vitro antibacterial activity against Staphylococcus aureus (S. a.) ATCC 29213. The test is classed as functional.
The molecule `COc1cccc(-c2cc(CN3CCN(c4ccc(N5C[C@H](CNC(C)=O)OC5=O)cc4F)CC3)on2)c1` yielded an MIC of 4 µg/mL (≈ 7.64 µM).
For `CC(=O)NC[C@H]1CN(c2ccc(N3CCN(C(=O)c4cc(C(=O)N(C)C)no4)CC3)c(F)c2)C(=O)O1`, 8 µg/mL (≈ 15.9 µM) was the least that counted as inhibitory (MIC).
As for `CC(=O)NC[C@H]1CN(c2ccc(N3CCN(Cc4cc(C)no4)CC3)c(F)c2)C(=O)O1`, the MIC is 16 µg/mL (≈ 37.1 µM).
Turning to `CC(=O)NC[C@H]1CN(c2ccc(N3CCN(C(=O)c4cc(Br)no4)CC3)c(F)c2)C(=O)O1`, the MIC came to 4 µg/mL (≈ 7.84 µM).
On the same count and under the same terms, with `CC(=O)NC[C@H]1CN(c2ccc(N3CCN(Cc4cc(-c5cccs5)no4)CC3)c(F)c2)C(=O)O1` the figure was 4 µg/mL (≈ 8.01 µM).

Another test has as its system Staphylococcus aureus. In words: In vitro antibacterial activity against methicillin-resistant Staphylococcus aureus (MRSA) C6068. The test is classed as functional.
`COc1cccc(-c2cc(CN3CCN(c4ccc(N5C[C@H](CNC(C)=O)OC5=O)cc4F)CC3)on2)c1` returned a minimal inhibitory concentration (MIC) of 4 µg/mL (≈ 7.64 µM).
On the same count and under the same terms, in the case of `CC(=O)NC[C@H]1CN(c2ccc(N3CCN(C(=O)c4cc(C(=O)N(C)C)no4)CC3)c(F)c2)C(=O)O1` it was 2 µg/mL (≈ 3.98 µM); in that of `CC(=O)NC[C@H]1CN(c2ccc(N3CCN(Cc4cc(C)no4)CC3)c(F)c2)C(=O)O1`, 16 µg/mL (≈ 37.1 µM).
Regarding `CC(=O)NC[C@H]1CN(c2ccc(N3CCN(C(=O)c4cc(Br)no4)CC3)c(F)c2)C(=O)O1`, the MIC turned out to be 1 µg/mL (≈ 1.96 µM).
Same read-out and setting: in the case of `CC(=O)NC[C@H]1CN(c2ccc(N3CCN(Cc4cc(-c5cccs5)no4)CC3)c(F)c2)C(=O)O1` it was 4 µg/mL (≈ 8.01 µM).

The subject of the next test is Staphylococcus aureus. The test is described as follows: In vitro antibacterial activity against methicillin-susceptible Staphylococcus aureus (MSSA) C2214. It is filed as functional.
`COc1cccc(-c2cc(CN3CCN(c4ccc(N5C[C@H](CNC(C)=O)OC5=O)cc4F)CC3)on2)c1` registered a minimal inhibitory concentration (MIC) of 4 µg/mL (≈ 7.64 µM).
Same read-out and setting: in the case of `CC(=O)NC[C@H]1CN(c2ccc(N3CCN(C(=O)c4cc(C(=O)N(C)C)no4)CC3)c(F)c2)C(=O)O1` it was 8 µg/mL (≈ 15.9 µM); in that of `CC(=O)NC[C@H]1CN(c2ccc(N3CCN(Cc4cc(C)no4)CC3)c(F)c2)C(=O)O1`, 16 µg/mL (≈ 37.1 µM).
As for `CC(=O)NC[C@H]1CN(c2ccc(N3CCN(C(=O)c4cc(Br)no4)CC3)c(F)c2)C(=O)O1`, it took 2 µg/mL (≈ 3.92 µM) to inhibit growth (MIC).
In the case of `CC(=O)NC[C@H]1CN(c2ccc(N3CCN(Cc4cc(-c5cccs5)no4)CC3)c(F)c2)C(=O)O1`, the lowest concentration to inhibit growth (MIC) was 4 µg/mL (≈ 8.01 µM).

For a further test, the system named is Streptococcus pyogenes. The test is described as follows: In vitro antibacterial activity against Streptococcus pyogenes ATCC 8668 (S.p.1). It is filed as functional.
The molecule `COc1cccc(-c2cc(CN3CCN(c4ccc(N5C[C@H](CNC(C)=O)OC5=O)cc4F)CC3)on2)c1` yielded a minimum inhibitory concentration (MIC) of 4 µg/mL (≈ 7.64 µM).
Same read-out and setting: with `CC(=O)NC[C@H]1CN(c2ccc(N3CCN(C(=O)c4cc(C(=O)N(C)C)no4)CC3)c(F)c2)C(=O)O1` the figure was 1 µg/mL (≈ 1.99 µM).
The same measure, in the same setting: with `CC(=O)NC[C@H]1CN(c2ccc(N3CCN(Cc4cc(C)no4)CC3)c(F)c2)C(=O)O1` the figure was 16 µg/mL (≈ 37.1 µM).
On the same count and under the same terms, with `CC(=O)NC[C@H]1CN(c2ccc(N3CCN(C(=O)c4cc(Br)no4)CC3)c(F)c2)C(=O)O1` the figure was 1 µg/mL (≈ 1.96 µM); with `CC(=O)NC[C@H]1CN(c2ccc(N3CCN(Cc4cc(-c5cccs5)no4)CC3)c(F)c2)C(=O)O1`, 1 µg/mL (≈ 2 µM).

A further test relates to Streptococcus pyogenes. The test is described as follows: In vitro antibacterial activity against Streptococcus pyogenes C6003 (S.p.2). It is filed as functional.
`COc1cccc(-c2cc(CN3CCN(c4ccc(N5C[C@H](CNC(C)=O)OC5=O)cc4F)CC3)on2)c1` yielded a minimum inhibitory concentration (MIC) of 1 µg/mL (≈ 1.91 µM).
Consider `CC(=O)NC[C@H]1CN(c2ccc(N3CCN(C(=O)c4cc(C(=O)N(C)C)no4)CC3)c(F)c2)C(=O)O1`, for which the MIC was 1 µg/mL (≈ 1.99 µM).
Regarding `CC(=O)NC[C@H]1CN(c2ccc(N3CCN(Cc4cc(C)no4)CC3)c(F)c2)C(=O)O1`, inhibition of growth (MIC) required 16 µg/mL (≈ 37.1 µM).
`CC(=O)NC[C@H]1CN(c2ccc(N3CCN(C(=O)c4cc(Br)no4)CC3)c(F)c2)C(=O)O1` had an MIC of 1 µg/mL (≈ 1.96 µM).
For the molecule `CC(=O)NC[C@H]1CN(c2ccc(N3CCN(Cc4cc(-c5cccs5)no4)CC3)c(F)c2)C(=O)O1`, the minimal inhibitory concentration (MIC) worked out at 1 µg/mL (≈ 2 µM).
